In patent US20120045543A1, “SHELF-LIFE EXTENSION OF SOUR DOUGH BAKED GOODS” (ERNST BÖCKER GMBH & CO. KG, priority 2009, published 2012):

Experiments:
P. roqueforti = assay: challenge experiment on inoculated bread slices; assay type: cell-based; conditions: based on initial flour weight
Text: The inoculated bread slices, already after 2-4 days, had mycelia of P. roqueforti. In order to inhibit this mold fungus growth, a concentration of greater than 0.4% w/w propionic acid (based on the initial flour weight) was required.

[1] = cited from earlier work
mold = assay: storage study of bread, mold-free time; conditions: bread with 0.4% propionic acid added
bacteria = conditions: cited from earlier work
A. niger = assay: challenge experiment, mycelial growth on bread; assay type: cell-based
[2] = loss of propionic acid during baking; assay type: physicochemical; conditions: during baking and up to 24 h thereafter
Method: Using the method known to those skilled in the art, the loss of propionic acid was determined in order to find out how much propionic acid is present in the various intermediates (dough versus baked product). […] This may be explained by the fact that at the end of the baking time the bread crumb has a temperature of at most 98° C.-106° C. Propionic acid has a boiling point of 141° C. and is therefore retained in the bread crumb during the baking to completion and also after cooling, and therefore can effect the desired protection against mold.

mold fungi = conditions: pH 5.5; depending on the fungal species; cited from earlier work

concentration of propionic acid during baking [2]: remained roughly constant
SMILES: CCC(=O)O [propionic acid]
concentration required to inhibit mold fungus growth (P. roqueforti): greater than 0.4 % w/w
toxicity on oral intake [1]: not acutely toxic
mold-free time longer compared with propionic acid-free bread (mold): 14 days
concentration necessary for inhibition of bacteria (bacteria): 1.6-6%
chemical addition needed to achieve comparable preservation results (A. niger; compared with co-fermentation giving 0.2% propionic and 0.2% acetic acid): at least 0.4%
concentration suppressing growth of A. niger up to the end of the study (A. niger; propionic acid alone, breads, challenge experiment): 0.3%
concentration inhibiting growth of mold fungi (mold fungi): 0.0125-1.25%
